Measurements from PubChem BioAssay AID1963849 (Molecular Pharmacology Branch, DTP, NCI, 2024).

System: 299254-011-R-J1-PDC complex spheroid viability
Experiment: Anticancer human tumor 299254-011-R-J1-PDC patient-derived melanoma cell line growth inhibition [POLQ]
Conditions: for IC50: curve of first compound; for viability, T/C: stronger effect = lower value
Summary of the method: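 Complex spheroid viability model combining PDC tumour cells with endothelial (HUVEC) and MSC stromal cells. Novobiocin, ART-558 or RP6685 were tested singly and in combination with standard and investigational anticancer drugs. Each was titrated in half-log steps from near clinical Cmax, or from 10 microM where Cmax was unknown.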

[1] = second compound 0.0316 µM, first compound 0.0316 µM
[2] = second compound 0.0316 µM, first compound 0.1 µM
[3] = second compound 0.1 µM, first compound 0.0316 µM
[4] = second compound 0.1 µM, first compound 0.1 µM
[5] = second compound 0.316 µM, first compound 0.0316 µM
[6] = second compound 0.316 µM, first compound 0.1 µM
[7] = second compound 1 µM, first compound 0.0316 µM
[8] = second compound 1 µM, first compound 0.1 µM
[9] = second compound 3.16 µM, first compound 0.0316 µM
[10] = second compound 3.16 µM, first compound 0.1 µM
[11] = second compound 10 µM, first compound 0.0316 µM
[12] = second compound 10 µM, first compound 0.1 µM
[13] = second compound 0.0316 µM, first compound 0.316 µM
[14] = second compound 0.0316 µM, first compound 1 µM
[15] = second compound 0.0316 µM, first compound 3.16 µM
[16] = second compound 0.0316 µM, first compound 10 µM
[17] = second compound 0.1 µM, first compound 0.316 µM
[18] = second compound 0.1 µM, first compound 1 µM
[19] = second compound 0.1 µM, first compound 3.16 µM
[20] = second compound 0.1 µM, first compound 10 µM
[21] = second compound 0.316 µM, first compound 0.316 µM
[22] = second compound 0.316 µM, first compound 1 µM
[23] = second compound 0.316 µM, first compound 3.16 µM
[24] = second compound 0.316 µM, first compound 10 µM
[25] = second compound 1 µM, first compound 0.316 µM
[26] = second compound 1 µM, first compound 1 µM
[27] = second compound 1 µM, first compound 3.16 µM
[28] = second compound 1 µM, first compound 10 µM
[29] = second compound 3.16 µM, first compound 0.316 µM
[30] = second compound 3.16 µM, first compound 1 µM
[31] = second compound 3.16 µM, first compound 3.16 µM
[32] = second compound 3.16 µM, first compound 10 µM
[33] = second compound 10 µM, first compound 0.316 µM
[34] = second compound 10 µM, first compound 1 µM
[35] = second compound 10 µM, first compound 3.16 µM
[36] = second compound 10 µM, first compound 10 µM
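Further: spheroids exposed to drugs for one week before measurement.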
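Wherever viability, T/C is given: percent viability relative to DMSO vehicle control taken as 100%.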

SMILES: Cn1ncnc1[C@H]1c2n[nH]c(=O)c3cc(F)cc(c23)N[C@@H]1c1ccc(F)cc1 + Nc1ccc(C#CCN(C(=O)Cc2ncc(C(F)(F)F)cc2C(F)(F)F)c2ccc(F)cc2)nn1
- IC50 (second compound 0.0316 µM): > 0.1 µM
- IC50 (second compound 0.1 µM): > 0.1 µM
- IC50 (second compound 0.316 µM): > 0.1 µM
- IC50 (second compound 1 µM): > 0.1 µM
- IC50 (second compound 3.16 µM): > 0.1 µM
- IC50 (second compound 10 µM): > 0.1 µM
- viability, T/C (second compound 0.0316 µM, first compound 0.000316 µM): 107%
- viability, T/C (second compound 0.0316 µM, first compound 0.001 µM): 101%
- viability, T/C (second compound 0.0316 µM, first compound 0.00316 µM): 97.2%
- viability, T/C (second compound 0.0316 µM, first compound 0.01 µM): 98.6%
- viability, T/C [1]: 99.9%
- viability, T/C [2]: 108%
- viability, T/C (second compound 0.1 µM, first compound 0.000316 µM): 115%
- viability, T/C (second compound 0.1 µM, first compound 0.001 µM): 94%
- viability, T/C (second compound 0.1 µM, first compound 0.00316 µM): 111%
- viability, T/C (second compound 0.1 µM, first compound 0.01 µM): 95.5%
- viability, T/C [3]: 107%
- viability, T/C [4]: 101%
- viability, T/C (second compound 0.316 µM, first compound 0.000316 µM): 107%
- viability, T/C (second compound 0.316 µM, first compound 0.001 µM): 113%
- viability, T/C (second compound 0.316 µM, first compound 0.00316 µM): 95.1%
- viability, T/C (second compound 0.316 µM, first compound 0.01 µM): 113%
- viability, T/C [5]: 125%
- viability, T/C [6]: 89.9%
- viability, T/C (second compound 1 µM, first compound 0.000316 µM): 107%
- viability, T/C (second compound 1 µM, first compound 0.001 µM): 106%
- viability, T/C (second compound 1 µM, first compound 0.00316 µM): 102%
- viability, T/C (second compound 1 µM, first compound 0.01 µM): 107%
- viability, T/C [7]: 102%
- viability, T/C [8]: 113%
- viability, T/C (second compound 3.16 µM, first compound 0.000316 µM): 103%
- viability, T/C (second compound 3.16 µM, first compound 0.001 µM): 103%
- viability, T/C (second compound 3.16 µM, first compound 0.00316 µM): 94.4%
- viability, T/C (second compound 3.16 µM, first compound 0.01 µM): 105%
- viability, T/C [9]: 98.2%
- viability, T/C [10]: 105%
- viability, T/C (second compound 10 µM, first compound 0.000316 µM): 96.3%
- viability, T/C (second compound 10 µM, first compound 0.001 µM): 93.3%
- viability, T/C (second compound 10 µM, first compound 0.00316 µM): 88.1%
- viability, T/C (second compound 10 µM, first compound 0.01 µM): 102%
- viability, T/C [11]: 87.2%
- viability, T/C [12]: 90.7%

SMILES: C=CC(=O)N1CCN(c2nc(=O)n(-c3c(C)ccnc3C(C)C)c3nc(-c4c(O)cccc4F)c(F)cc23)C(C)C1 (stereo not drawn) + Nc1ccc(C#CCN(C(=O)Cc2ncc(C(F)(F)F)cc2C(F)(F)F)c2ccc(F)cc2)nn1
- IC50 (second compound 0.0316 µM): > 10 µM
- IC50 (second compound 0.1 µM): > 10 µM
- IC50 (second compound 0.316 µM): > 10 µM
- IC50 (second compound 1 µM): > 10 µM
- IC50 (second compound 3.16 µM): > 10 µM
- IC50 (second compound 10 µM): > 10 µM
- viability, T/C [1]: 77.4%
- viability, T/C [2]: 83.6%
- viability, T/C [13]: 80%
- viability, T/C [14]: 84.9%
- viability, T/C [15]: 88.7%
- viability, T/C [16]: 70.2%
- viability, T/C [3]: 86.9%
- viability, T/C [4]: 75.2%
- viability, T/C [17]: 80.7%
- viability, T/C [18]: 86.2%
- viability, T/C [19]: 81.7%
- viability, T/C [20]: 76.9%
- viability, T/C [5]: 93.5%
- viability, T/C [6]: 76.9%
- viability, T/C [21]: 66.2%
- viability, T/C [22]: 82.2%
- viability, T/C [23]: 77.9%
- viability, T/C [24]: 78.4%
- viability, T/C [7]: 96.2%
- viability, T/C [8]: 78.1%
- viability, T/C [25]: 81.6%
- viability, T/C [26]: 79.1%
- viability, T/C [27]: 92.7%
- viability, T/C [28]: 79%
- viability, T/C [9]: 83.1%
- viability, T/C [10]: 80%
- viability, T/C [29]: 74.6%
- viability, T/C [30]: 82.2%
- viability, T/C [31]: 85.9%
- viability, T/C [32]: 64.5%
- viability, T/C [11]: 90.3%
- viability, T/C [12]: 80.8%
- viability, T/C [33]: 73.5%
- viability, T/C [34]: 79.1%
- viability, T/C [35]: 79.7%
- viability, T/C [36]: 77.4%

SMILES: CC1COCCN1c1cc(C2(S(C)(=N)=O)CC2)nc(-c2ccnc3[nH]ccc23)n1 (stereo not drawn) + COC1C(OC(N)=O)C(O)C(Oc2ccc3c(O)c(NC(=O)c4ccc(O)c(CC=C(C)C)c4)c(=O)oc3c2C)OC1(C)C
- IC50 (second compound 0.0316 µM): 6.05 µM
- IC50 (second compound 0.1 µM): 5.77 µM
- IC50 (second compound 0.316 µM): 6.98 µM
- IC50 (second compound 1 µM): 5.46 µM
- IC50 (second compound 3.16 µM): 7.19 µM
- IC50 (second compound 10 µM): 6.75 µM
- viability, T/C [1]: 110%
- viability, T/C [2]: 116%
- viability, T/C [13]: 102%
- viability, T/C [14]: 85.3%
- viability, T/C [15]: 66.5%
- viability, T/C [16]: 38.1%
- viability, T/C [3]: 110%
- viability, T/C [4]: 95%
- viability, T/C [17]: 111%
- viability, T/C [18]: 106%
- viability, T/C [19]: 60.9%
- viability, T/C [20]: 39.9%
- viability, T/C [5]: 98.9%
- viability, T/C [6]: 98.7%
- viability, T/C [21]: 110%
- viability, T/C [22]: 106%
- viability, T/C [23]: 69.9%
- viability, T/C [24]: 41%
- viability, T/C [7]: 112%
- viability, T/C [8]: 122%
- viability, T/C [25]: 109%
- viability, T/C [26]: 85.8%
- viability, T/C [27]: 65%
- viability, T/C [28]: 35.7%
- viability, T/C [9]: 101%
- viability, T/C [10]: 122%
- viability, T/C [29]: 105%
- viability, T/C [30]: 101%
- viability, T/C [31]: 70.4%
- viability, T/C [32]: 41.8%
- viability, T/C [11]: 122%
- viability, T/C [12]: 103%
- viability, T/C [33]: 109%
- viability, T/C [34]: 90.9%
- viability, T/C [35]: 73.6%
- viability, T/C [36]: 37.6%

SMILES: CNCc1ccc(-c2[nH]c3cc(F)cc4c3c2CCNC4=O)cc1 + Cc1cccc(N(C)C(=O)C2C(O)CCN2c2nc(C)cc(C(F)(F)F)c2C#N)c1
- IC50 (second compound 0.0316 µM): > 10 µM
- IC50 (second compound 0.1 µM): > 10 µM
- IC50 (second compound 0.316 µM): > 10 µM
- IC50 (second compound 1 µM): > 10 µM
- IC50 (second compound 3.16 µM): > 10 µM
- IC50 (second compound 10 µM): > 10 µM
- viability, T/C [1]: 101%
- viability, T/C [2]: 100%
- viability, T/C [13]: 104%
- viability, T/C [14]: 109%
- viability, T/C [15]: 104%
- viability, T/C [16]: 136%
- viability, T/C [3]: 102%
- viability, T/C [4]: 105%
- viability, T/C [17]: 110%
- viability, T/C [18]: 112%
- viability, T/C [19]: 112%
- viability, T/C [20]: 118%
- viability, T/C [5]: 109%
- viability, T/C [6]: 110%
- viability, T/C [21]: 98.1%
- viability, T/C [22]: 108%
- viability, T/C [23]: 130%
- viability, T/C [24]: 116%
- viability, T/C [7]: 107%
- viability, T/C [8]: 109%
- viability, T/C [25]: 98.3%
- viability, T/C [26]: 103%
- viability, T/C [27]: 119%
- viability, T/C [28]: 118%
- viability, T/C [9]: 120%
- viability, T/C [10]: 110%
- viability, T/C [29]: 117%
- viability, T/C [30]: 109%
- viability, T/C [31]: 112%
- viability, T/C [32]: 119%
- viability, T/C [11]: 113%
- viability, T/C [12]: 98.5%
- viability, T/C [33]: 96.8%
- viability, T/C [34]: 97%
- viability, T/C [35]: 108%
- viability, T/C [36]: 118%
